From publication PMC9516684 (2022) come the findings set out here.

The test system of experiment [1] is AT (DNA, duplex) ATATATATATAT
Nature of the experiment: UV-visible absorbance titration 355 nm, Bard fit. Particulars: Na+ (20 mM sodium phosphate), 20 mM sodium phosphate pH 7.0, 298 K, per base.

For experiment [2], the system named is (5′-CCGGTACCGG)2 (TA step) (DNA, duplex) CCGGTACCGG
Nature of the experiment: UV-visible absorbance titration 355 nm, Bard fit. The following applies: Na+ (20 mM sodium phosphate); 20 mM sodium phosphate pH 7.0, 298 K; site size s 3.17 (±0.07); per base.

Experiment [3] relates to (5′-CCGGATCCGG)2 (AT step) (DNA, duplex) CCGGATCCGG
Nature of the experiment: UV-visible absorbance titration 355 nm, Bard fit. The following applies: Na+ (20 mM sodium phosphate); 20 mM sodium phosphate pH 7.0, 298 K; site size s 3.5 (±0.7); per base.

Experiment [4] concerns (5′-CCGGTACCGG)2 (TA step) (DNA, duplex) CCGGTACCGG
Nature of the experiment: luminescence titration 750 nm, Bard fit. The following applies: Na+ (20 mM sodium phosphate); 20 mM sodium phosphate pH 7.0, 298 K; s 7.6; caption says luminescence 750 nm, column head 415 nm absorbance; per base.

Experiment [5] concerns AT (DNA, duplex) ATATATATATAT
Nature of the experiment: luminescence titration 750 nm, Bard fit. The following applies: Na+ (20 mM sodium phosphate), 20 mM sodium phosphate pH 7.0, 298 K, per base.

The subject of experiment [6] is (5′-CCGGATCCGG)2 (AT step) (DNA, duplex) CCGGATCCGG
Nature of the experiment: luminescence titration 750 nm, Bard fit. Particulars: Na+ (20 mM sodium phosphate); 20 mM sodium phosphate pH 7.0, 298 K; s 5.5; caption says luminescence 750 nm, column head 415 nm absorbance; per base.

The subject of experiment [7] is AT (DNA, duplex) ATATATATATAT
Nature of the experiment: UV-visible absorbance titration 415 nm, Bard fit. Particulars: Na+ (20 mM sodium phosphate), 20 mM sodium phosphate pH 7.0, 298 K, per base.

`[Os+2].c1cnc2c(ccc3nccnc32)n1.c1cnc2c(ccc3nccnc32)n1.c1cnc2nc3c4cccnc4c4ncccc4c3nc2c1`: the Kb in experiment [1] (site size s 4.4 (±0.1)) is 2.0 (±0.3) × 10^6 M^–1; in experiment [1] (site size s 5.6 (±0.1)), 5.0 (±0.8) × 10^6 M^–1; in experiment [2], 2.2 (±0.4) × 10^6 M^–1; in experiment [3], 3.8 (±1.5) × 10^6 M^–1; in experiment [4], 1.4 (±0.3) × 10^6 M^–1; in experiment [5] (site size s 4.6 (±0.1)), 4.5 (±1.3) × 10^6 M^–1. Moreover, the Kb in experiment [5] (site size s 7.7 (±0.08)) is given as 1.4 (±0.4) × 10^7 M^–1; in experiment [6], 1.0 (±0.2) × 10^6 M^–1.

Take `[Os+2].c1ccc2nc3c4cccnc4c4ncccc4c3nc2c1.c1cnc2c(ccc3nccnc32)n1.c1cnc2c(ccc3nccnc32)n1`: the Kb is 8.7 (±1.2) × 10^6 M^–1 in experiment [7] (site size s 4.5 (±0.1)), 5.1 (±1.6) × 10^6 M^–1 in experiment [7] (site size s 6.0 (±0.2)), 8.5 (±0.5) × 10^6 M^–1 in experiment [5] (site size s 3.8 (±0.1)) and 1.1 (±0.3) × 10^7 M^–1 in experiment [5] (site size s 5.0 (±0.1)).
